# Key:
# A549 cells = experiment: Cellular toxicity by CellTiter-Glo; type: cell-based; conditions: concentrations of up to 10 μM; 24 hours
# Protocol: FIGS. 38(A-C) show assays of cellular toxicity on A549 cells at 24 hours of 15-PGDH inhibitors as assayed by CellTiter-Glo measurement.
# [1] = 21 day toxicity study in FVB mice, daily weights; type: in vivo, mouse; conditions: 5 mg/kg IP twice daily for 21 days
# C57BL/6J mice [2] = experiment: Bone marrow of C57BL/6J mice treated IP; type: in vivo, mouse; conditions: 5 mg/kg or 20 mg/kg IP
# From the text: Experimental conditions are noted on the figure.
# C57BL/6J female mice = experiment: Survival of mice after whole body irradiation, SW033291 5 mg/kg IP; type: in vivo, mouse; conditions: for number of mice surviving: 9 Gy
# C57BL/6J mice [3] = experiment: Liver regeneration after partial hepatectomy, C57BL/6J mice, SW033291 5 mg/kg IP; type: in vivo; conditions: 5 mg/kg IP bid; one mouse each
# FVB male mice = experiment: Dextran sodium sulfate (DSS) induced colitis, FVB male mice, SW033291 5 mg/kg IP twice daily; type: in vivo, mouse
# mice = experiment: Homing of CFSE labeled donor bone marrow cells in lethally irradiated mice; type: in vivo, mouse; conditions: 10 mg/kg IP
# Protocol: Drugs are administered following radiation, following the transplant, and again at 8 hours after the transplant.
# CXCL12 = experiment: Gene expression in bone marrow cells of treated mice: CXCL12; type: in vivo, mouse; conditions: 10 mg/kg IP twice daily, 5 doses
# Protocol: (§1) 2 hours following the last dose bone marrow is harvested and sorted into SKL marked cells that are hematopoietic stem cell enriched and into CD45(−) cells that are bone marrow stroma cells. RNA was extracted and gene expression determined relative to levels in mice injected with vehicle control.
# SCF = experiment: Gene expression in bone marrow cells of treated mice: SCF; type: in vivo, mouse; conditions: 10 mg/kg IP twice daily, 5 doses
# Protocol: as §1
# [4] = CD45(−) bone marrow stromal cells
structure (smiles),measurement,setting,value
"CCCC[S+]([O-])c1sc2nc(-c3cccs3)cc(-c3ccccc3)c2c1N (stereo not drawn) [SW033291, 2-(butylsulfinyl)-4-phenyl-6-(thiophen-2-yl)thieno[2,3-b]pyridin-3-amine]",effect on CellTitre-Glo levels,A549 cells,No effect
same,mouse weight,[1],no evidence for SW033291 reducing mouse weight
same,increase in numbers of hematopoietic colonies,C57BL/6J mice [2],approximately 30%
same,percent of Sca1+/c-Kit+ cells in lineage negative (SKL) cells,C57BL/6J mice [2],unchanged
same,longer survival on average than vehicle control,"C57BL/6J female mice; 11Gy, any of the three dosing schedules",1 to 2 days
same,longer survival than vehicle control,"C57BL/6J female mice; 11Gy, daily for 7 doses",48 h
same,number of mice surviving,"C57BL/6J female mice; Day 0, daily for 7 doses",3
same,number of mice surviving,"C57BL/6J female mice; Day 5, daily for 7 doses",3
same,number of mice surviving,"C57BL/6J female mice; Day 6, daily for 7 doses",3
same,number of mice surviving,"C57BL/6J female mice; Day 7, daily for 7 doses",3
same,number of mice surviving,"C57BL/6J female mice; Day 8, daily for 7 doses",3
same,number of mice surviving,"C57BL/6J female mice; Day 9, daily for 7 doses",3
same,number of mice surviving,"C57BL/6J female mice; Day 10, daily for 7 doses",3
same,number of mice surviving,"C57BL/6J female mice; Day 12, daily for 7 doses",2
same,number of mice surviving,"C57BL/6J female mice; Day 13, daily for 7 doses",2
same,number of mice surviving,"C57BL/6J female mice; Day 14, daily for 7 doses",1
same,number of mice surviving,"C57BL/6J female mice; Day 15, daily for 7 doses",0
same,appearance of mice,"C57BL/6J female mice; Day 25, 7 Gy, wrapped cell reads Looks Healthy",Looks
same,serum ALT values vs control,C57BL/6J mice [3],lower
same,change from baseline weight vs control,FVB male mice; 22 days of study,greater weight at all time points
same,Colon length,FVB male mice; Baseline,8.4 ± 0.2 cm
same,Wt @ sacrifice,FVB male mice; Baseline,25.9 ± 0.7 gm
same,Colon length,FVB male mice; Day 8,6.6 ± 0.1 cm
same,Wt @ sacrifice,FVB male mice; Day 8,26.4 ± 0.5 gm
same,Colon length,FVB male mice; Day 15,7.5 ± 0.1 cm
same,Wt @ sacrifice,FVB male mice; Day 15,25.2 ± 0.9 gm
same,Colon length,FVB male mice; Day 22,8.6 ± 0.3 cm
same,Wt @ sacrifice,FVB male mice; Day 22,28.2 ± 0.5 gm
same,share of ulcer formation prevented,"FVB male mice; colonoscopy days 8, 11 and 15",two-thirds
same,reduction of length of ulcerated mucosa vs control,FVB male mice; day 15,61%
same,average length of ulcerated mucosa,"FVB male mice; day 15, N=6 mice, control 4.48",1.74 mm per colon section
same,MEICS score vs control,"FVB male mice; days 8, 11 and 15",significantly less colitis activity
same,increase of homed cells in recipient bone marrow,mice; FIG. 88,3 fold
same,increase of homed cells in recipient bone marrow,mice; FIG. 90,2 fold
same,increase of homed donor cells in recipient bone marrow,mice; FIG. 140,approximately 2.5 fold
same,induction of CXCL12,CXCL12; [4],greater than 4 fold
same,induction in RNA expression of CXCL12,CXCL12; bone marrow SKL cells,3 fold
same,induction of SCF,SCF; [4],greater than 4 fold
same,induction in RNA expression of SCF,SCF; bone marrow SKL cells,3 fold

# From patent US20230285402A1, “Compositions and Methods of Modulating Short-Chain Dehydrogenase Activity” (BOARD OF REGENTS OF THE UNIVERSITY OF TEXAS SYSTEM, priority 2013, published 2023)
